Assay results reported in patent US12247033B2, “Triazole-substituted imidazo[1,2-a]pyrimidines as cGAS inhibitors” (GlaxoSmithKline Intellectual Property Development Limited, priority 2022, dated 2025).
≈ marks a conversion by molar mass, not a printed value. Where “and” joins values, the source holds several entries; their conditions need not be identical. Equal values may be shown once. Where a name gives a salt, the structure may show the parent alone.

Columns and labels:
[1] = test system: cGAS pathway; experiment: Whole blood (hWB) cytokine release assay (96-well, Bacmam stimulation, plasma IP-10 by Meso-Scale Discovery plates); format: cell-based; conditions: Table 4, human whole blood from individual healthy donors, 6 h; for IC50: Homo sapiens, read-out: hWB pXC50 (converted)
Description: The whole blood (hWB) cytokine release assay was performed as follows.
Human whole blood was collected from individual healthy donors into a 60 ml syringe containing sodium heparin (5 ml sodium heparin per syringe; Cat #309653, Becton-Dickinson, NJ, US). In a biosafety cabinet, 140 ul of the collected blood was transferred to each well of a 96-well flat bottom plate (Cat #167008, VWR, PA, US). The DMSO stock solution of small molecule cGAS inhibitor (10 mM stock solution) was diluted in PBS to prepare 10× solutions (3-fold dilutions) and 20 ul of the prepared 10× solutions was added to appropriate wells. Plates were shaken for 5 minutes at room temperature then incubated at 37° C. for 30 minutes. The stock solution of purified Bacmam was diluted with PBS+0.1% BSA to prepare a 4% (v/v) solution (10×). To activate the cGAS pathway, 20 uL of Bacmam was added to the blood, and the plates were shaken for 10 minutes at room temperature. PBS was added to achieve a final volume of 200 ul. Plates were then incubated at 37° C. for 6 hours.
Plates were removed from incubator and 100 uL/well PBS added. Plates were gently shaken for 10 minutes at room temperature and centrifuged (3000 rpm, 10 minutes) at room temperature. The plasma layer was removed and transferred to a separate 96-well plate and maintained at −80° C.
Plasma samples were measured for IP-10 levels using the IP-10 detection (U-plex or V-plex) plates (Cat #K151-UFK-4; Cat #K151-NVD-4; Meso-Scale Discovery, Inc.).

[2] = biological target: human CGAS (157-522) (Homo sapiens, UniProt Q8N884); experiment: biochemical;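 further: biochemical enzyme reaction, 2′3′-cGAMP product measured by RapidFire mass spectrometry (MRM) normalised to c-di-UMP internal standard, inhibition of product formation relative to high and low control wells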
human CGAS (157-522), sequence (Q8N884 157-522): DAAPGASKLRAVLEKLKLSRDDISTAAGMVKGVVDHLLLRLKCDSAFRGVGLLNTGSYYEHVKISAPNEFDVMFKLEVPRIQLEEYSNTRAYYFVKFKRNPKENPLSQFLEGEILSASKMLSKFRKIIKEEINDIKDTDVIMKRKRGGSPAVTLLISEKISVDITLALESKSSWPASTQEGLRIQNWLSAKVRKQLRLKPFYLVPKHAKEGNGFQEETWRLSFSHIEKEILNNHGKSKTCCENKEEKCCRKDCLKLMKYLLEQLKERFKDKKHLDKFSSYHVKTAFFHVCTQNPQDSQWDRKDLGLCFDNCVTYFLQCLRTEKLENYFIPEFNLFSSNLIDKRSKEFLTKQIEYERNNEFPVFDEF

[3] = test system: CGAS; experiment: CGAS whole blood cytokine release assay (384-well, BacMam stimulation, IP-10 by cytometric bead array); format: cell-based; conditions: Homo sapiens, 6 h; read-out: hWB pXC50 (converted)
Procedure, shortened: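 Heparinised human donor whole blood mixed with serially diluted compound plus Null BacMam stimulus, incubated 6 h at 37° C, 5% CO2. Supernatant IP-10 quantified by cytometric bead array on flow cytometer (488 nm excitation, 585/40 nm emission); inhibition of IP-10 calculated.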

[4] = FaSSIF solubility (Fasted State Simulated Intestinal Fluid); format: physicochemical; conditions: thermodynamic from solid, FaSSIF pH 6.5, 4 h equilibration at room temperature, dynamic range 1-1000 μg/mL
Description: 1 mL of FaSSIF buffer (3 mM sodium taurocholate, 0.75 mM lecithin in sodium phosphate buffer at pH 6.5) was added to manually weighed 1 mg of the solid compound in a 4 mL vial. […] The residual solid was removed by filtration. The supernatant solution was quantified by HPLC-UV using single point calibration of a known concentration of the compound in DMSO. The dynamic range of the assay was 1-1000 μg/mL.

Row | SMILES | IC50 [2] [nM] | IC50 [3] [nM] | solubility at 4 h [4] [µg/mL] | hWB pXC50 [1] | IC50 [1] [nM]
1 | COc1nc2c(-n3ccnc3)c(-c3nnc(C(F)(F)F)[nH]3)[nH]c2cc1Cl | 63.1 |  |  | < 4.5 and 5.0 | 
2 | CC(C)[C@H](N)C(=O)OCn1cnc(-c2c(-c3nc(C(F)(F)F)nn3COC(=O)[C@@H](N)C(C)C)nc3ncccn23)c1 [Example 24, (4-{2-[1-({[(2S)-2-amino-3-methylbutanoyl]oxy}methyl)-3-(trifluoromethyl)-1H-1,2,4-triazol-5-yl]imidazo[1,2-a]pyrimidin-3-yl}-1H-imidazol-1-yl)methyl (2S)-2-amino-3-methylbutanoate, 2 trifluoroacetic acid salt] | 63.1 |  | 324 |  | 
3 | CNCC(=O)OCc1cccnc1N(C)C(=O)OC(C)n1cncc1-c1c(-c2nc(C(F)(F)F)n[nH]2)nc2ncccn12 (stereo not drawn) [Example 25, {2-[methyl({[1-(5-{2-[3-(trifluoromethyl)-1H-1,2,4-triazol-5-yl]imidazo[1,2-a]pyrimidin-3-yl}-1H-imidazol-1-yl)ethoxy]carbonyl})amino]pyridin-3-yl}methyl 2-(methylamino)acetate, hydrochloride salt] | 25.1 | 316 | > 1000 |  | 
4 | CNCCOC(=O)OCn1cnc(-c2c(-c3nc(C(F)(F)F)nn3COC(=O)OCCNC)nc3ncccn23)c1 [Example 27, [4-(2-{1-[({[2-(methylamino)ethoxy]carbonyl}oxy)methyl]-3-(trifluoromethyl)-1H-1,2,4-triazol-5-yl}imidazo[1,2-a]pyrimidin-3-yl)-1H-imidazol-1-yl]methyl 2-(methylamino)ethyl carbonate, 2 trifluoroacetic acid salt] |  | 158 | 298 |  | 
5 | O=C(CCCOP(=O)(O)O)OCn1cnc(-c2c(-c3nc(C(F)(F)F)n[nH]3)nc3ncccn23)c1 [Example 29, {4-oxo-4-[(4-{2-[3-(trifluoromethyl)-1H-1,2,4-triazol-5-yl]imidazo[1,2-a]pyrimidin-3-yl}-1H-imidazol-1-yl)methoxy]butoxy}phosphonic acid, trifluoroacetic acid salt] | 31.6 | 316 | > 1000 |  | 
6 | FC(F)(F)c1n[nH]c(-c2nc3ncc(COC4CCC4)cn3c2-c2c[nH]cn2)n1 [Example 157, 5-[6-(cyclobutoxymethyl)-3-(1H-imidazol-4-yl)imidazo[1,2-a]pyrimidin-2-yl]-3-(trifluoromethyl)-1H-1,2,4-triazole] | 2.51 | 251 |  |  | 
7 | FC(F)(F)c1nnc(-c2[nH]c3c(Cl)c(Cl)ccc3c2-c2cn[nH]c2)[nH]1 [WO 2022/137085 Example 11] |  |  |  | 4.6 | > 31600
8 | Cn1c(-c2nnc(C(F)(F)F)[nH]2)c(-n2ccnc2)c2ccc(Cl)c(Cl)c21 [WO 2022/137085 Example 109] |  |  |  | <4.5, <4.5 | > 31600

Further lines, with some results ahead:

Row | IC50 [2] [nM] | IC50 [3] [nM] | solubility at 4 h [4] [µg/mL] | SMILES | hWB pXC50 [1] | IC50 [1] [nM]
9 |  | 158 | 4 (≈ 12.5 µM) | FC(F)(F)c1n[nH]c(-c2nc3ncccn3c2-c2c[nH]cn2)n1 [Example 1, 5-[3-(1H-imidazol-4-yl)imidazo[1,2-a]pyrimidin-2-yl]-3-(trifluoromethyl)-1H-1,2,4-triazole] |  | 
10 | 3.98 | 316 | 5 (≈ 14.8 µM) | Fc1cnc2nc(-c3nc(C(F)(F)F)n[nH]3)c(-c3cnc[nH]3)n2c1 [Example 2, 5-[6-fluoro-3-(1H-imidazol-5-yl)imidazo[1,2-a]pyrimidin-2-yl]-3-(trifluoromethyl)-1H-1,2,4-triazole] |  | 251
11 | 251 | 794 | 455 (≈ 1010 µM) | O=C(O)CCC(=O)OCn1cnc(-c2c(-c3nc(C(F)(F)F)n[nH]3)nc3ncccn23)c1 [Example 23, 4-oxo-4-[(4-{2-[3-(trifluoromethyl)-1H-1,2,4-triazol-5-yl]imidazo[1,2-a]pyrimidin-3-yl}-1H-imidazol-1-yl)methoxy]butanoic acid] |  | 
12 | 3.16 | 316 | 208 | CNCCOC(=O)OCn1nc(C(F)(F)F)nc1-c1nc2ncccn2c1-c1cnc[nH]1 [Example 28, {5-[3-(1H-imidazol-5-yl)imidazo[1,2-a]pyrimidin-2-yl]-3-(trifluoromethyl)-1H-1,2,4-triazol-1-yl}methyl 2-(methylamino)ethyl carbonate, 2 trifluoroacetic acid salt] |  | 
13 | 794 |  | > 1000 | O=P(O)(O)OCn1nc(C(F)(F)F)nc1-c1nc2ncc(F)cn2c1-c1cnc[nH]1 [Example 34, ({5-[6-fluoro-3-(1H-imidazol-5-yl)imidazo[1,2-a]pyrimidin-2-yl]-3-(trifluoromethyl)-1H-1,2,4-triazol-1-yl}methoxy)phosphonic acid] |  | 
14 | 3.98 | 501 |  | CCCOc1cnc2nc(-c3nc(C(F)(F)F)n[nH]3)c(-c3cnc[nH]3)n2c1 [Example 154, 5-[3-(1H-imidazol-5-yl)-6-propoxyimidazo[1,2-a]pyrimidin-2-yl]-3-(trifluoromethyl)-1H-1,2,4-triazole] |  | 
15 | 7.94 | 501 |  | FC(F)(F)c1n[nH]c(-c2nc3ncc(COCC4CC45CCOC5)cn3c2-c2c[nH]cn2)n1 (stereo not drawn) [Example 155, 5-[3-(1H-imidazol-4-yl)-6-[{{5-oxaspiro[2.4]heptan-1-yl}methoxy)methyl]imidazo[1,2-a]pyrimidin-2-yl]-3-(trifluoromethyl)-1H-1,2,4-triazole] |  | 
16 | 10 | 631 |  | CC1COC(COCc2cnc3nc(-c4nc(C(F)(F)F)n[nH]4)c(-c4c[nH]cn4)n3c2)C1 (stereo not drawn) [Example 156, 5-[3-(1H-imidazol-4-yl)-6-{[(4-methyloxolan-2-yl)methoxy]methyl}imidazo[1,2-a]pyrimidin-2-yl]-3-(trifluoromethyl)-1H-1,2,4-triazole] |  | 
17 | 5.01 | 398 |  | FC(F)(F)COc1cnc2nc(-c3nc(C(F)(F)F)n[nH]3)c(-c3cnc[nH]3)n2c1 [Example 160, 5-[3-(1H-imidazol-5-yl)-6-(2,2,2-trifluoroethoxy)imidazo[1,2-a]pyrimidin-2-yl]-3-(trifluoromethyl)-1H-1,2,4-triazole] |  | 
18 | 5.01 | 251 |  | FC(F)(F)c1n[nH]c(-c2nc3ncc(OC4CCOC4)cn3c2-c2cnc[nH]2)n1 (stereo not drawn) [Example 161, 5-[3-(1H-imidazol-5-yl)-6-(oxolan-3-yloxy)imidazo[1,2-a]pyrimidin-2-yl]-3-(trifluoromethyl)-1H-1,2,4-triazole] |  | 
19 | 7.94 | 1000 |  | FC(F)CN1CC(Oc2cnc3nc(-c4nc(C(F)(F)F)n[nH]4)c(-c4cnc[nH]4)n3c2)C1 [Example 162, 5-(6-{[1-(2,2-difluoroethyl)azetidin-3-yl]oxy}-3-(1H-imidazol-5-yl)imidazo[1,2-a]pyrimidin-2-yl)-3-(trifluoromethyl)-1H-1,2,4-triazole] |  | 
20 | 10 | 794 |  | CCOc1cnc2nc(-c3nc(C(F)(F)F)n[nH]3)c(-c3cnc[nH]3)n2c1 [Example 163, 5-[6-ethoxy-3-(1H-imidazol-5-yl)imidazo[1,2-a]pyrimidin-2-yl]-3-(trifluoromethyl)-1H-1,2,4-triazole] |  | 
21 | 6.31 | 200 |  | COC(C)c1cnc2nc(-c3nc(C(F)(F)F)n[nH]3)c(-c3c[nH]cn3)n2c1 (stereo not drawn) [Example 165, 5-[3-(1H-imidazol-4-yl)-6-(1-methoxyethyl)imidazo[1,2-a]pyrimidin-2-yl]-3-(trifluoromethyl)-1H-1,2,4-triazole] |  | 
